Values of other authors as cited in paper PMC9516332 (Frontiers in Oncology, 2022).
Where two headings read alike, the source gives them in different places.

Key:
[1] = biological target: panel of 255 wild-type kinases (Homo sapiens, UniProt P16234); details: kinase PDGFRα, 1 µmol/L single concentration, cited from earlier work
[2] = biological target: T1, panel of 255 wild-type kinases (Homo sapiens, UniProt P42680); details: kinase TEC, 1 µmol/L single concentration, cited from earlier work
T1 sequence (P42680 1-631): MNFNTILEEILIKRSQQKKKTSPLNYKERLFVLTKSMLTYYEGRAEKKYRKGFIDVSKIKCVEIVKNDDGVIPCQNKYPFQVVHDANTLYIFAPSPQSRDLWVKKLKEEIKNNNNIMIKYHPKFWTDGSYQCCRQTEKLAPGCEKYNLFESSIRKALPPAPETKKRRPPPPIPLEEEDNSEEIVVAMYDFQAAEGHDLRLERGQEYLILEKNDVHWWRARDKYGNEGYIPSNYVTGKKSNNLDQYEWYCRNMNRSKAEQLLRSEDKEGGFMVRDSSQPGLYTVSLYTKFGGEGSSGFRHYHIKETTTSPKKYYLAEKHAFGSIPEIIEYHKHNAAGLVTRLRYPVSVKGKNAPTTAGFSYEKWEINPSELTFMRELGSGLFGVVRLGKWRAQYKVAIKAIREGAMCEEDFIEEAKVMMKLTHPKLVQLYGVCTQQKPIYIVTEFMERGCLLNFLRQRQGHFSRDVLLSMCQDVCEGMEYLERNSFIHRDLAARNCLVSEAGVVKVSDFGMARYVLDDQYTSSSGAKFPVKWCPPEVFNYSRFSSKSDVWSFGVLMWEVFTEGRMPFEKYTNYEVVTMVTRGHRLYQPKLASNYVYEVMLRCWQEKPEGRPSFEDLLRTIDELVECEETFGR

[3] = biological target: panel of 255 wild-type kinases (Homo sapiens, UniProt Q15759); details: p38β, 1 µmol/L single concentration, cited from earlier work
[4] = biological target: panel of 255 wild-type kinases (Homo sapiens, UniProt Q9NYY3); details: kinase PLK2, 1 µmol/L single concentration, cited from earlier work
[5] = biological target: panel of 255 wild-type kinases (Homo sapiens, UniProt Q07912); details: ACK kinase assay, 1 µmol/L single concentration, cited from earlier work
[6] = biological target: panel of 255 wild-type kinases (Homo sapiens, UniProt O14578); details: kinase CRIK, 1 µmol/L single concentration, cited from earlier work
[7] = biological target: panel of 255 wild-type kinases (Homo sapiens, UniProt P27361); details: kinase Erk1, 1 µmol/L single concentration, cited from earlier work
[8] = biological target: panel of 255 wild-type kinases (Homo sapiens, UniProt P29317); details: kinase EPHA2, 1 µmol/L single concentration, cited from earlier work
[9] = biological target: T2, panel of 255 wild-type kinases (Homo sapiens, UniProt P51817); details: kinase PRKX, 1 µmol/L single concentration, cited from earlier work
T2 sequence (P51817 1-358): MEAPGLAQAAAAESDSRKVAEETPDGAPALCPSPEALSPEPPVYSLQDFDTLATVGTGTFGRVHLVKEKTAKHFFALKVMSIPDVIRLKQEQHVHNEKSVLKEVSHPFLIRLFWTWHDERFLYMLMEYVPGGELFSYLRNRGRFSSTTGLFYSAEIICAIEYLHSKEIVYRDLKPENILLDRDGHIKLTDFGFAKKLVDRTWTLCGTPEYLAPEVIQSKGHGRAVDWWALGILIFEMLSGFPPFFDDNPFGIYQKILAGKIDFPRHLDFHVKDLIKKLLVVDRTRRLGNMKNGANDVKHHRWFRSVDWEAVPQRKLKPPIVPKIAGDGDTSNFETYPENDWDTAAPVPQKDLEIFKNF

[10] = biological target: panel of 255 wild-type kinases (Homo sapiens, UniProt Q9Y3S1); details: kinase WNK2, 1 µmol/L single concentration, cited from earlier work
[11] = biological target: T3, panel of 255 wild-type kinases (Homo sapiens, UniProt Q8NE63); details: kinase HIPK4, 1 µmol/L single concentration, cited from earlier work
T3 sequence (Q8NE63 1-616): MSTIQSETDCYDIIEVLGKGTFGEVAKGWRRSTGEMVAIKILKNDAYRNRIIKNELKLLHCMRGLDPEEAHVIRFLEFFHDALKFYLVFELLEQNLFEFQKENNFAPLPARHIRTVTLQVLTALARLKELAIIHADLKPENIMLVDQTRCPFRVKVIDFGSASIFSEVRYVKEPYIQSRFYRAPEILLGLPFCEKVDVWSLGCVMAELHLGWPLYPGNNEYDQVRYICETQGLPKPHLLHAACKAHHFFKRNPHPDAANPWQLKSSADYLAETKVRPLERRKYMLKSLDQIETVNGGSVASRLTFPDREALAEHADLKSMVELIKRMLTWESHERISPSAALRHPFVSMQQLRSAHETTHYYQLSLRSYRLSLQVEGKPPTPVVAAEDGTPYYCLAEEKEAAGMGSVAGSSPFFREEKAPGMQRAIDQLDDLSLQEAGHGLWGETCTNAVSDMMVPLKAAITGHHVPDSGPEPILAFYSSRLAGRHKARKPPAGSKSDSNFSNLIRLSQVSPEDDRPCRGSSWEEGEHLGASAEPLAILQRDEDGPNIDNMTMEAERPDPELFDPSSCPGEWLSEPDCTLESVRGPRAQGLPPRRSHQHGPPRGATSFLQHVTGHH

[12] = biological target: panel of 255 wild-type kinases (Homo sapiens, UniProt Q9H4A3); details: kinase WNK1, 1 µmol/L single concentration, cited from earlier work
[13] = ref DOI: 10.1371/journal.pone.0092146
[14] = ref DOI: 10.1158/1535-7163.MCT-18-0877

| Structure (SMILES) | %-inhibition at 1 µmol/L, PDGFRα [1, 13] | %-inhibition at 1 µmol/L, TEC [2, 13] | %-inhibition, p38β [3, 13] | %-inhibition at 1 µmol/L, PLK2 [4, 13] | %-inhibition ACK [5, 13] | %-inhibition at 1 µmol/L, CRIK [6, 13] | %-inhibition at 1 µmol/L, Erk1 [7, 13] | %-inhibition at 1 µmol/L, EPHA2 [8, 13] | %-inhibition at 1 µmol/L, PRKX [9, 13] | %-inhibition at 1 µmol/L, WNK2 [10, 13] | %-inhibition at 1 µmol/L, HIPK4 [11, 13] | %-inhibition at 1 µmol/L, WNK1 [12, 13] | %-inhibition at 1 µmol/L, PDGFRα [1, 14] | %-inhibition at 1 µmol/L, TEC [2, 14] | %-inhibition, p38β [3, 14] | %-inhibition at 1 µmol/L, PLK2 [4, 14] | %-inhibition ACK [5, 14] | %-inhibition at 1 µmol/L, CRIK [6, 14] | %-inhibition at 1 µmol/L, Erk1 [7, 14] | %-inhibition at 1 µmol/L, EPHA2 [8, 14] | other results |
| --- | --- | --- | --- | --- | --- | --- | --- | --- | --- | --- | --- | --- | --- | --- | --- | --- | --- | --- | --- | --- | --- |
| CC(C)(C)c1nc(-c2cccc(NS(=O)(=O)c3c(F)cccc3F)c2F)c(-c2ccnc(N)n2)s1 [dabrafenib] | 63% | 38% | 5.3% | -4.64% | 24% | -2.74% | -1.62% | 7% | -1.55% | 0.686% | 92% | 1.14% | – | – | – | – | – | – | – | – | – |
| C=CC(=O)N1CCC[C@@H](n2nc(-c3ccc(Oc4ccccc4)cc3)c3c(N)ncnc32)C1 [ibrutinib] | – | – | – | – | – | – | – | – | – | – | – | – | 94% | 92% | 9% | 1.72% | 73% | -0.165% | 1.74% | 7% | %-inhibition at 1 µmol/L, PRKX [9, 14]: 0.66%; %-inhibition at 1 µmol/L, WNK2 [10, 14]: 5.67%; %-inhibition at 1 µmol/L, HIPK4 [11, 14]: 2.6%; %-inhibition at 1 µmol/L, WNK1 [12, 14]: 2.3% |
| CO[C@@H]1[C@H](N(C)C(=O)c2ccccc2)C[C@H]2O[C@]1(C)n1c3ccccc3c3c4c(c5c6ccccc6n2c5c31)C(=O)NC4 [midostaurin] | – | – | – | – | – | – | – | – | – | – | – | – | 99% | 58% | 1.19% | 2.68% | 102% | 1.32% | -0.653% | 3.36% | %-inhibition at 1 µmol/L, PRKX [9, 14]: 97%; %-inhibition at 1 µmol/L, WNK2 [10, 14]: 0.935%; %-inhibition at 1 µmol/L, HIPK4 [11, 14]: 63%; %-inhibition at 1 µmol/L, WNK1 [12, 14]: 5.36% |
| C=CC(=O)Nc1cc(Nc2nccc(-c3cn(C)c4ccccc34)n2)c(OC)cc1N(C)CCN(C)C [osimertinib] | – | – | – | – | – | – | – | – | – | – | – | – | 69% | 86% | 4.56% | 1.06% | 100% | 7% | -3.18% | 3.35% | %-inhibition at 1 µmol/L, PRKX [9, 14]: 1.37%; %-inhibition at 1 µmol/L, WNK2 [10, 14]: 4.6%; %-inhibition at 1 µmol/L, HIPK4 [11, 14]: 92%; %-inhibition at 1 µmol/L, WNK1 [12, 14]: -1.88% |
| CC(=O)Nc1cccc(-n2c(=O)n(C3CC3)c(=O)c3c(Nc4ccc(I)cc4F)n(C)c(=O)c(C)c32)c1 [trametinib] | 4.53% | -7.53% | 2.31% | -1.65% | -5.39% | -4.25% | -1.14% | -8.53% | -1.19% | 1.45% | 2.78% | -1.42% | – | – | – | – | – | – | – | – | – |
| CCCS(=O)(=O)Nc1ccc(F)c(C(=O)c2c[nH]c3ncc(-c4ccc(Cl)cc4)cc23)c1F [vemurafenib] | 87% | -0.191% | 24% | -1.85% | 40% | -6% | 0.0533% | 0.715% | -3.45% | 13% | -0.437% | 10% | – | – | – | – | – | – | – | – | – |
